Reference: patent EP4596574A1, “GLP-1/GCG/GIP TRIPLE-RECEPTOR AGONIST AND USE THEREOF” (Sunshine Lake Pharma Co., Ltd., priority 2022, dated 2024)
Marks after values point to notes of the source that are not given here.

How the values were obtained:
[1] = Glucose tolerance assessment in normal C57BL/6 mice (Example 5); format: in vivo; details: 3 nmol/kg s.c. single dose, 24 h after administration
Method: (§1) Twelve hours after the single administration, the animals were fasted for 12 hours and had free access to water. Blood was collected from the tail vein to determine the basal blood glucose level of each group of animals, and then 2 g/kg glucose solution was injected intraperitoneally. Blood glucose was tested at 15, 30, 60, and 90 min after glucose administration. The blood glucose concentration-time curve was drawn according to the blood glucose values measured at different time points, and the AUC0~90min of each dose group was calculated as shown in Table 5 and Figure 2. Table 5: Effects of single administration of HEC-PT86, HEC-PT96, HEC-PT112, HEC-PT113, HEC-PT114, and HEC-PT119 on glucose tolerance in normal C57 mice 24 h after administration

[2] = target: T1, GCGR (Homo sapiens, UniProt P47871); experiment: In vitro cell activity, cAMP production in HEK293 cells expressing GCGR; format: cell-based
T1 construct: expressed in transfected cells; host or cells: HEK293 (HEK293-GCGR)
T1 sequence (P47871 26-477, species assumed): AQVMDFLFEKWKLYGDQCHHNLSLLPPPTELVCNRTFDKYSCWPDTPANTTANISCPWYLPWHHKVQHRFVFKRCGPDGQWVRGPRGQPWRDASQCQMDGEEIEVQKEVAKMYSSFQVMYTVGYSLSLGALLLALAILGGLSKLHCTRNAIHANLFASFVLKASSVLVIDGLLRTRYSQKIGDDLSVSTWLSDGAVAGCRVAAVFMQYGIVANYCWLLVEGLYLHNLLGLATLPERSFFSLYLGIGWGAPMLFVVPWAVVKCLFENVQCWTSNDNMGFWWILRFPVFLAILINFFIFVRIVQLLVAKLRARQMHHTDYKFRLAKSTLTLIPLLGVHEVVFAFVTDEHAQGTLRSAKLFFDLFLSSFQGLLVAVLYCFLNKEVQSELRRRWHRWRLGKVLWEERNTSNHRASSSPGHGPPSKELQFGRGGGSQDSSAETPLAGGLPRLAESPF
Method in brief: (§2)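 cAMP output read as 665/620 nm HTRF ratio after adding cAMP-d2 plus anti-cAMP cryptate and incubating 1 h at room temperature in the dark or overnight at 4 °C. Cells: HEK293 expressing human GLP-1R or GCGR, plated from a 4×10^5 cells/mL suspension. Four-parameter fit gives EC50.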

[3] = target: T2, GIPR (Homo sapiens, UniProt P48546); experiment: In vitro cell activity, cAMP production in HEK293 cells expressing GIPR; format: cell-based
T2 construct: expressed in transfected cells; host or cells: HEK293 (HEK293-GIPR)
T2 sequence (P48546 22-466): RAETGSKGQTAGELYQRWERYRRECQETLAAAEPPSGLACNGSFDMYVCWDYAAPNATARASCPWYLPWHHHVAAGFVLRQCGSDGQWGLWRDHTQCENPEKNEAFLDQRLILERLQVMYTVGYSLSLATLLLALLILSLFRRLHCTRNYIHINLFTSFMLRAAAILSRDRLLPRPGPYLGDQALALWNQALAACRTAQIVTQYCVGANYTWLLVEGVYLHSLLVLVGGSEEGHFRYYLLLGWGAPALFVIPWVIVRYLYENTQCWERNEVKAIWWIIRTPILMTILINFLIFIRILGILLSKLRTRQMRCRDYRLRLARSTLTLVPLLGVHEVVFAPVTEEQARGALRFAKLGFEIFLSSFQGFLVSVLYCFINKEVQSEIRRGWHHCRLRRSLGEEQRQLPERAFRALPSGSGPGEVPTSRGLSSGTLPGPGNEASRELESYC
Method in brief: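 HEK293 cells expressing human GIPR, thawed and diluted to 4×10^5 cells/mL, are stimulated with test compound. cAMP is measured by HTRF competition between cAMP-d2 and anti-cAMP cryptate. EC50 comes from a four-parameter nonlinear fit of signal ratio against concentration.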

[4] = target: T3, GLP-1R (Homo sapiens, UniProt P43220); experiment: In vitro cell activity, cAMP production in HEK293 cells expressing GLP-1R; format: cell-based
T3 construct: expressed in transfected cells; host or cells: HEK293 (HEK293-GLP-1R)
T3 sequence (P43220 24-463, species assumed): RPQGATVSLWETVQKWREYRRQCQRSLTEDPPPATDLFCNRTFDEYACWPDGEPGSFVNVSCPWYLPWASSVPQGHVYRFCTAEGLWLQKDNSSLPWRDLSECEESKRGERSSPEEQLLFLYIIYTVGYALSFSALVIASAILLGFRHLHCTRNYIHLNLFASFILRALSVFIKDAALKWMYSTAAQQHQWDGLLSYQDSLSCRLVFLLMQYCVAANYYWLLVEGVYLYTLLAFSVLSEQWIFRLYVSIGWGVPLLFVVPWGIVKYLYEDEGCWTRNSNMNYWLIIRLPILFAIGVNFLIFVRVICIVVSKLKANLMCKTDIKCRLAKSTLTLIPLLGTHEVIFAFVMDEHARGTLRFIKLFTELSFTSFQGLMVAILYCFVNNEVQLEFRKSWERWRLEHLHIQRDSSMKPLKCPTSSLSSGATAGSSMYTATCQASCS
Method in brief: as §2

[5] = Glucose tolerance assessment in normal C57BL/6 mice (Example 4); format: in vivo; details: for Blood glucose level (mM) 15 min / Blood glucose level (mM) 30 min / Blood glucose level (mM) 60 min / Blood glucose level (mM) 90 min / Blood glucose level (mM) 0 min / AUC0-90 min: 3 nmol/kg s.c. single dose, 24 h after administration; for Blood glucose level (mM) 15 min: 15 min after 2 g/kg glucose i.p.; for Blood glucose level (mM) 30 min: 30 min after 2 g/kg glucose i.p.; for Blood glucose level (mM) 60 min: 60 min after 2 g/kg glucose i.p.; for Blood glucose level (mM) 90 min: 90 min after 2 g/kg glucose i.p.; for Blood glucose level (mM) 0 min: basal before 2 g/kg glucose i.p.; for AUC0-90 min: blood glucose AUC, 2 g/kg glucose i.p.
Method: as §1, with “Table 4” for “Table 5”, “Figure 1.” for “Figure 2.”, “Table 4:” for “Table 5:”, “of HEC-PT74, HEC-PT75, HEC-PT77, HEC-PT78, HEC-PT80,” for “of HEC-PT86, HEC-PT96, HEC-PT112, HEC-PT113, HEC-PT114,”, “and HEC-PT82” for “and HEC-PT119”

[6] = In vivo efficacy evaluation in db/db mouse model (blood glucose); parameters: species or system db/db mice
Method: Blood glucose was tested before each administration.

CC[C@H](C)[C@H](NC(=O)[C@H](CCCCN)NC(=O)[C@H](CC(=O)O)NC(=O)[C@H](CCCCNC(=O)COCCOCCNC(=O)CC[C@H](NC(=O)CCCCCCCCCCCCCCCCC(=O)O)C(=O)O)NC(=O)[C@H](CC(C)C)NC(=O)[C@@H](NC(=O)[C@H](CO)NC(=O)[C@H](Cc1ccc(O)cc1)NC(=O)[C@H](CC(=O)O)NC(=O)[C@H](CO)NC(=O)[C@@H](NC(=O)[C@](C)(Cc1ccccc1F)NC(=O)[C@@H](NC(=O)CNC(=O)[C@H](CCC(N)=O)NC(=O)C(C)(C)NC(=O)[C@@H](N)Cc1ccc(O)cc1)[C@@H](C)O)[C@@H](C)O)[C@@H](C)CC)C(=O)N[C@@H](C)C(=O)N[C@@H](CCC(N)=O)C(=O)NC(C)(C)C(=O)N[C@@H](C)C(=O)N[C@@H](Cc1ccccc1)C(=O)N[C@H](C(=O)N[C@@H](CCC(=O)O)C(=O)N[C@@H](Cc1ccc(O)cc1)C(=O)N[C@@H](CC(C)C)C(=O)N[C@@H](CC(C)C)C(=O)N[C@@H](CCC(=O)O)C(=O)NCC(=O)NCC(=O)N1CCC[C@H]1C(=O)N[C@@H](CO)C(=O)N[C@@H](CO)C(=O)NCC(=O)N[C@@H](C)C(=O)N1CCC[C@H]1C(=O)N1CCC[C@H]1C(=O)N1CCC[C@H]1C(=O)N[C@@H](CO)C(N)=O)[C@@H](C)CC [HEC-PT114]
Blood glucose level (mM) 15 min ([1]; 15 min after 2 g/kg glucose i.p.): 13.5 ± 1.0 mM
Blood glucose level (mM) 30 min ([1]; 30 min after 2 g/kg glucose i.p.): 9.8 ± 0.8 mM
Blood glucose level (mM) 60 min ([1]; 60 min after 2 g/kg glucose i.p.): 7.9 ± 0.8 mM
Blood glucose level (mM) 90 min ([1]; 90 min after 2 g/kg glucose i.p.): 6.3 ± 0.8 mM
Blood glucose level (mM) 0 min ([1]; basal before 2 g/kg glucose i.p.): 4.9 ± 1.0 mM
AUC0-90 min ([1]; blood glucose AUC, 2 g/kg glucose i.p.): 791.0±55.3^a
EC50 [2]: 0.138 nM
EC50 [3]: 0.0567 nM
EC50 [4]: 0.12 nM

CC[C@H](C)[C@H](NC(=O)[C@H](Cc1ccccc1)NC(=O)[C@H](C)NC(=O)[C@H](CCCNC(=N)N)NC(=O)[C@H](CCC(N)=O)NC(=O)[C@H](C)NC(=O)[C@H](CCCCNC(=O)COCCOCCNC(=O)CC[C@H](NC(=O)CCCCCCCCCCCCCCCCC(=O)O)C(=O)O)NC(=O)[C@H](CCC(=O)O)NC(=O)[C@H](CC(=O)O)NC(=O)[C@H](CC(C)C)NC(=O)[C@H](CC(C)C)NC(=O)[C@@H](NC(=O)[C@H](CO)NC(=O)[C@H](Cc1ccc(O)cc1)NC(=O)[C@H](CC(=O)O)NC(=O)[C@H](CO)NC(=O)[C@@H](NC(=O)[C@](C)(Cc1ccccc1F)NC(=O)[C@@H](NC(=O)CNC(=O)[C@H](Cc1c[nH]cn1)NC(=O)C(C)(C)NC(=O)[C@@H](N)Cc1ccc(O)cc1)[C@@H](C)O)[C@@H](C)O)[C@@H](C)CC)C(=O)N[C@@H](CCC(=O)O)C(=O)N[C@@H](Cc1ccc(O)cc1)C(=O)N[C@@H](CC(C)C)C(=O)N[C@@H](CC(C)C)C(=O)N[C@@H](C)C(=O)NCC(=O)NCC(=O)N1CCC[C@H]1C(=O)N[C@@H](CO)C(=O)N[C@@H](CO)C(=O)NCC(=O)N[C@@H](C)C(=O)N1CCC[C@H]1C(=O)N1CCC[C@H]1C(=O)N1CCC[C@H]1C(=O)N[C@@H](CO)C(=O)O [HEC-PT75]
Blood glucose level (mM) 15 min [5]: 11.1 ± 3.1 mM
Blood glucose level (mM) 30 min [5]: 8.9 ± 3.1 mM
Blood glucose level (mM) 60 min [5]: 7.4 ± 2.0 mM
Blood glucose level (mM) 90 min [5]: 5.6 ± 0.7 mM
Blood glucose level (mM) 0 min [5]: 4.0 ± 0.4 mM
improvement of glucose tolerance compared with LY3298176 ([5]; 24 hours after a single administration, 3 nmol/kg): more effective in improving glucose tolerance than the positive control LY3298176
AUC0-90 min [5]: 682.0±166.7^a
EC50 [2]: 0.0672 nM
EC50 [3]: 0.0377 nM
EC50 [4]: 0.108 nM

CC[C@H](C)[C@H](NC(=O)[C@H](Cc1ccccc1)NC(=O)[C@H](CCC(=O)O)NC(=O)[C@H](CCCNC(=N)N)NC(=O)[C@H](CCC(N)=O)NC(=O)[C@H](C)NC(=O)[C@H](CCCCNC(=O)COCCOCCNC(=O)CC[C@H](NC(=O)CCCCCCCCCCCCCCCCC(=O)O)C(=O)O)NC(=O)[C@H](CCC(=O)O)NC(=O)[C@H](CC(=O)O)NC(=O)[C@H](CC(C)C)NC(=O)[C@H](CC(C)C)NC(=O)[C@@H](NC(=O)[C@H](CO)NC(=O)[C@H](Cc1ccc(O)cc1)NC(=O)[C@H](CC(=O)O)NC(=O)[C@H](CO)NC(=O)[C@@H](NC(=O)[C@](C)(Cc1ccccc1F)NC(=O)[C@@H](NC(=O)CNC(=O)[C@H](Cc1c[nH]cn1)NC(=O)C(C)(C)NC(=O)[C@@H](N)Cc1ccc(O)cc1)[C@@H](C)O)[C@@H](C)O)[C@@H](C)CC)C(=O)N[C@@H](CCC(=O)O)C(=O)N[C@@H](Cc1c[nH]c2ccccc12)C(=O)N[C@@H](CC(C)C)C(=O)N[C@@H](CC(C)C)C(=O)N[C@@H](C)C(=O)NCC(=O)NCC(=O)N1CCC[C@H]1C(=O)N[C@@H](CO)C(=O)N[C@@H](CO)C(=O)NCC(=O)N[C@@H](C)C(=O)N1CCC[C@H]1C(=O)N1CCC[C@H]1C(=O)N1CCC[C@H]1C(=O)N[C@@H](CO)C(=O)O [HEC-PT74]
Blood glucose level (mM) 15 min [5]: 14.0 ± 4.3 mM
Blood glucose level (mM) 30 min [5]: 10.0 ± 3.1 mM
Blood glucose level (mM) 60 min [5]: 8.4 ± 2.5 mM
Blood glucose level (mM) 90 min [5]: 7.1 ± 2.3 mM
Blood glucose level (mM) 0 min [5]: 4.6 ± 1.0 mM
AUC0-90 min [5]: 827.3±234.6^a
EC50 [2]: 0.319 nM
EC50 [3]: 0.0043 nM
EC50 [4]: 0.104 nM
blood glucose after administration ([6]; db/db mice, 10 nmol/kg): significantly reduce blood glucose
Random blood glucose (mM) D0 ([6]; db/db mice, 10 nmol/kg s.c. once every three days, D0 (before first dose)): 25.5 ± 4.7 mM
Random blood glucose (mM) D3 ([6]; db/db mice, 10 nmol/kg s.c. once every three days, D3): 13.5 ± 4.4 mM
Random blood glucose (mM) D4 ([6]; db/db mice, 10 nmol/kg s.c. once every three days, D4): 20.0 ± 2.9 mM
Random blood glucose (mM) D5 ([6]; db/db mice, 10 nmol/kg s.c. once every three days, D5): 22.1 ± 3.9 mM
Random blood glucose (mM) D6 ([6]; db/db mice, 10 nmol/kg s.c. once every three days, D6): 21.1 ± 3.0 mM
Random blood glucose (mM) D7 ([6]; db/db mice, 10 nmol/kg s.c. once every three days, D7): 22.7 ± 2.9 mM
Random blood glucose (mM) D10 ([6]; db/db mice, 10 nmol/kg s.c. once every three days, D10): 12.1 ± 2.1 mM
Random blood glucose (mM) D13 ([6]; db/db mice, 10 nmol/kg s.c. once every three days, D13): 12.5 ± 2.7 mM
Random blood glucose (mM) D16 ([6]; db/db mice, 10 nmol/kg s.c. once every three days, D16): 12.1 ± 2.9 mM
Random blood glucose (mM) D19 ([6]; db/db mice, 10 nmol/kg s.c. once every three days, D19): 16.0 ± 2.3 mM
Random blood glucose (mM) D22 ([6]; db/db mice, 10 nmol/kg s.c. once every three days, D22): 13.9 ± 3.2 mM
Random blood glucose (mM) D25 ([6]; db/db mice, 10 nmol/kg s.c. once every three days, D25): 16.3±4.2^a mM
Random blood glucose (mM) 6 h ([6]; db/db mice, 10 nmol/kg s.c., 6 h): 16.7 ± 5.1 mM
Random blood glucose (mM) 24 h ([6]; db/db mice, 10 nmol/kg s.c., 24 h): 7.3 ± 1.6 mM
Random blood glucose (mM) 48 h ([6]; db/db mice, 10 nmol/kg s.c., 48 h): 9.2 ± 2.9 mM
time at which blood glucose levels reached the lowest level ([6]; db/db mice, 10 nmol/kg, after administration): about 24 hours
blood glucose lowering after long-term administration compared with LY3298176 ([6]; db/db mice, long-term repeated administration): not inferior to the positive control LY3298176
blood glucose reducing effect after administration compared with LY3298176 ([6]; db/db mice, same dose 10 nmol/kg): slightly better than the positive control LY3298176
blood glucose level after long-term administration ([6]; type II diabetes model db/db mice): significantly improve the blood glucose level
